Test results: patent US20100029696A1, “INDOLYLAMINO QUINAZOLINE DERIVATIVES AS ANTITUMOR AGENTS” (priority 2005, published 2010)

Legend:
EGFR tyrosine kinase = biological target: T1, EGFR tyrosine kinase (Homo sapiens, UniProt P00533); assay: Protein tyrosine kinase phosphorylation assay, Test (a), EGFR; assay type: biochemical; settings: ATP at Km concentration; read-out: IC50 Test (a): Inhibition of EGFR tyrosine kinase protein phosphorylation
T1 construct: Recombinant intracellular fragments of EGFR, erbB2 and erbB4; made in house; host or cells: baculovirus/Sf21 insect cells
T1 sequence (P00533 669-1210 limits assumed): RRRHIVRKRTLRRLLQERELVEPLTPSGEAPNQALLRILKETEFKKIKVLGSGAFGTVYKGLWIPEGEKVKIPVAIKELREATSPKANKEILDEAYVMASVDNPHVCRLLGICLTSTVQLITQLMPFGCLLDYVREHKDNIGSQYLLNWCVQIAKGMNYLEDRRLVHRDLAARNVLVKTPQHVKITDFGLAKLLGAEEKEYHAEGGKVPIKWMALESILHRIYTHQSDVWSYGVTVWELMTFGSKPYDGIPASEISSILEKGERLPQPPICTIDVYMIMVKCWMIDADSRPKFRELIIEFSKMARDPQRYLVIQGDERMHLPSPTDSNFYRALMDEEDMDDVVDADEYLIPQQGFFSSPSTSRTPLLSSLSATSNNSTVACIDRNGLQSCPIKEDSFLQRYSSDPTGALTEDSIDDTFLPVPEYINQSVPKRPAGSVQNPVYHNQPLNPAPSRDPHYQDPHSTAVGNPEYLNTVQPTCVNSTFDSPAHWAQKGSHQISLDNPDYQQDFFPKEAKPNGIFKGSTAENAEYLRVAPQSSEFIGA
Description: (§1) This test measures the ability of a test compound to inhibit the phosphorylation of a tyrosine containing polypeptide substrate by EGFR, erbB2 and erbB4 tyrosine kinase enzyme.
(§2) Recombinant intracellular fragments of EGFR, erbB2 and erbB4 (accession numbers X00588, X03363 and L07868 respectively) were cloned and expressed in the baculovirus/Sf21 system. […]
(§3) Constitutive kinase activity of these recombinant proteins was determined by their ability to phosphorylate a synthetic peptide (made up of a random co-polymer of Glutamic Acid, Alanine and Tyrosine in the ratio of 6:3:1). […]
(§4) The immobilised phospho-peptide product of the reaction was detected by immunological methods. […] After further washing, HRP activity in each well of the plate was measured colorimetrically using 22′-Azino-di-[3-ethylbenzthiazoline sulfonate (6)]diammonium salt crystals (ABTS™ from Roche) as a substrate.
(§5) Quantification of colour development and thus enzyme activity was achieved by the measurement of absorbance at 405 nm on a Molecular Devices ThermoMax microplate reader. Kinase inhibition for a given compound was expressed as an IC50 value. […] The range of phosphorylation was calculated from the positive (vehicle plus ATP) and negative (vehicle minus ATP) control values.

erbB2 tyrosine kinase = biological target: T2, erbB2 tyrosine kinase (Homo sapiens, UniProt P04626); assay: Protein tyrosine kinase phosphorylation assay, Test (a), erbB2; assay type: biochemical; settings: ATP at Km concentration; read-out: IC50 Test (a): Inhibition of erbB2 tyrosine kinase protein phosphorylation
T2 construct: Recombinant intracellular fragments of EGFR, erbB2 and erbB4; made in house; host or cells: baculovirus/Sf21 insect cells
T2 sequence (P04626 676-1255 limits assumed): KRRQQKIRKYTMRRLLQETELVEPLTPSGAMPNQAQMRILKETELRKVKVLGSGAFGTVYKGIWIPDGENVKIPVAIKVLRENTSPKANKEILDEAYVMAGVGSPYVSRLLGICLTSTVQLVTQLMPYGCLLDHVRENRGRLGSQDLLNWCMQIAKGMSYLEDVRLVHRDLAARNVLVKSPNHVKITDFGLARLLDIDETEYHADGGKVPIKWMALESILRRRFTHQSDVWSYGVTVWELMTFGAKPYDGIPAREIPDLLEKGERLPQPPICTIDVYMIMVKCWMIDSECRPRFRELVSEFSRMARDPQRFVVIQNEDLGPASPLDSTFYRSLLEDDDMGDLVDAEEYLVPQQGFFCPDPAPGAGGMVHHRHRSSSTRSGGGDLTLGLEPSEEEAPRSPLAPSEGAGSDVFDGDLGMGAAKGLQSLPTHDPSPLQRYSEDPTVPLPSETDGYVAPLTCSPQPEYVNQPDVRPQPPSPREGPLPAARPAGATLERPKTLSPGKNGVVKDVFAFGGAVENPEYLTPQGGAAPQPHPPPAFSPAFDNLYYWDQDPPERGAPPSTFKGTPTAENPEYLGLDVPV
Description: as §1, §2, §3, §4, §5

[1] = biological target: T3, erbB2 in MCF7 derived cell line (Clone 24 cells) (Homo sapiens, UniProt P04626); assay: Clone 24 phospho-erbB2 cell assay, Test (c); assay type: cell-based; settings: MCF7 derived Clone 24 cells, 4 hours; read-out: IC50 Test (c): Inhibition of erbB2 tyrosine kinase protein phosphorylation
T3 construct: a cell line that overexpresses full length wild type erbB2 protein; expressed in transfected cells; host or cells: MCF7 (breast carcinoma) cells, 'Clone 24'
T3 sequence (P04626 23-1255): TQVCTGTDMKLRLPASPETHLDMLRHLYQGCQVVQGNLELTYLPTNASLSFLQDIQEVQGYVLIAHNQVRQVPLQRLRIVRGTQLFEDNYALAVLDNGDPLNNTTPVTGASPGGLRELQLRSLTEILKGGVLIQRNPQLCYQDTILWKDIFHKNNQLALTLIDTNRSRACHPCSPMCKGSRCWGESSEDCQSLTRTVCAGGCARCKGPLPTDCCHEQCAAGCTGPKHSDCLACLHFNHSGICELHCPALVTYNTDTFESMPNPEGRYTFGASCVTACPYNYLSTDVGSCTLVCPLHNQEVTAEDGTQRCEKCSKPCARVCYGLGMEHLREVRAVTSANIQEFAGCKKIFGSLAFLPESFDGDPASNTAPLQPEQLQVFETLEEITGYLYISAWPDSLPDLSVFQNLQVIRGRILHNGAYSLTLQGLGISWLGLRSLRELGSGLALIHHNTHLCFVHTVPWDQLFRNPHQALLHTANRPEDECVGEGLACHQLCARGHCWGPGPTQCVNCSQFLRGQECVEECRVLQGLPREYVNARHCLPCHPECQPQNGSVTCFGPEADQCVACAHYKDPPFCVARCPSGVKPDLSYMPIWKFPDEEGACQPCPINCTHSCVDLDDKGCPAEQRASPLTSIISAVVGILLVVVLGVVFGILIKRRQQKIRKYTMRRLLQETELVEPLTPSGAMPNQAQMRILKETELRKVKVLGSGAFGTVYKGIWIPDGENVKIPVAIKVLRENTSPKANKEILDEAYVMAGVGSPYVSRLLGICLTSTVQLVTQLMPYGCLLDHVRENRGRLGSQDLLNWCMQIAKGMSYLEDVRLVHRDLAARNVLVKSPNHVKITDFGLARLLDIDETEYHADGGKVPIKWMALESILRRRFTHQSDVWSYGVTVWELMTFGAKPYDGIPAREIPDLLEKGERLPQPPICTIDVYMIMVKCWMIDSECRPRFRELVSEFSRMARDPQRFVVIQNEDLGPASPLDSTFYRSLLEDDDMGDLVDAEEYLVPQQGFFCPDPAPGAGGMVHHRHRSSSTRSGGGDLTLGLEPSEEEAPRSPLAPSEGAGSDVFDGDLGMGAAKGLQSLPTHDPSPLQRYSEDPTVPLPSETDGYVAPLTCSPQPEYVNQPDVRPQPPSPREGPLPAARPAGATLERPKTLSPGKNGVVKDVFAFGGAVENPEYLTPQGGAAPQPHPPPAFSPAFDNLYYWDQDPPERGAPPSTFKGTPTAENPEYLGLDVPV
Description: This immunofluorescence end point assay measures the ability of a test compound to inhibit the phosphorylation of erbB2 in a MCF7 (breast carcinoma) derived cell line which was generated by transfecting MCF7 cells with the full length erbB2 gene using standard methods to give a cell line that overexpresses full length wild type erbB2 protein (hereinafter ‘Clone 24’ cells).
Clone 24 cells were cultured in Growth Medium (phenol red free Dulbecco's modified Eagle's medium (DMEM) containing 10% foetal bovine serum, 2 mM glutamine and 1.2 mg/ml G418) in a 7.5% CO2 air incubator at 37° C. […] Cell density was measured using a haemocytometer and viability was calculated using Trypan Blue solution before being further diluted in Growth Medium and seeded at a density of 1×10^4 cells per well (in 100 μl) into clear bottomed 96 well plates (Packard, No. 6005182). […]
Immunostaining was performed at room temperature. […] Plates were analysed within six hours of completing the immunostaining.
The Fluorescence signal is each well was measured using an Acumen Explorer Instrument (Acumen Bioscience Ltd.), a plate reader that can be used to rapidly quantitate features of images generated by laser-scanning. […]

Row | IC50 (EGFR tyrosine kinase) [nM] | IC50 (erbB2 tyrosine kinase) [nM] | IC50 [1] [nM] | Structure (SMILES)
1 | 1 | 1 | – | O=C(CO)N1CCCC[C@@H]1COc1cccc2ncnc(Nc3ccc4c(ccn4Cc4ccccn4)c3)c12 [Example 1, 2-Oxo-2-((2R)-2-{[(4-{[1-(pyridin-2-ylmethyl)-1H-indol-5-yl]amino}quinazolin-5-yl)oxy]methyl}piperidin-1-yl)ethanol]
2 | 1 | 38 | 35 | O=C(CO)N1CCCC[C@@H]1COc1cccc2ncnc(Nc3ccc4c(ccn4Cc4cscn4)c3)c12 [Example 2, 2-Oxo-2-((2R)-2-{[(4-{[1-(1,3-thiazol-4-ylmethyl)-1H-indol-5-yl]amino}quinazolin-5-yl)oxy]methyl}piperidin-1-yl)ethanol]
